Experimental findings from US9440957B2, “Compounds and compositions for modulating EGFR Activity” (Novartis AG, priority 2012, dated 2016) are described below.

Molecules are shown by their SMILES.

Format in all cases: cell-based
Assay [1] has as its target human EGFR WT (NIH/3T3 cells, EGF-induced) (Homo sapiens, UniProt P00533). Description: EGFR target modulation in engineered NIH/3T3 cell lines (phospho-EGFR Y1068 AlphaLISA), EGFR WT. As to conditions: engineered NIH/3T3 cells, read-out: NIH3T3 IC50 (μM) EGFR (WT). The method, boiled down:
(§1)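 Read-out is phospho-Y1068 AlphaLISA on cell lysates, with anti-total EGFR at 1 nM final equilibrated 1 h at room temperature. Cells were dosed 3 h with a 12-point 1:3 series starting from a 10 μM stock. Only the WT line received 50 ng/ml EGF for 5 min.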
A general note: Alpha assays give light when donor and acceptor beads are brought close together.

The target in assay [2] is human EGFR L858R/T790M (NIH/3T3 cells) (Homo sapiens, UniProt P00533, L858R/T790M). The assay can be described thus: EGFR target modulation in engineered NIH/3T3 cell lines (phospho-EGFR Y1068 AlphaLISA), EGFR L858R/T790M. The conditions noted are these: engineered NIH/3T3 cells, read-out: NIH3T3 IC50 (μM) EGFR (L858R/T790M). The method, boiled down:
as §1

The target in assay [3] is H3255 (EGFR L858R) (Homo sapiens, UniProt P00533, L858R). The assay can be described thus: EGFR target modulation in H3255 cell line (phospho-EGFR Y1173 ELISA). The method, boiled down: (§2)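 Phospho-EGFR Y1173 levels were measured by chemiluminescent capture ELISA in lysates of cells exposed to compound for 3 hours at 37 °C. Inhibition was normalised to EGF-stimulated control cells taken as maximal response, and IC50 values were obtained by non-linear curve fitting.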
H3255 (EGFR L858R), sequence (P00533 25-1210 L858R): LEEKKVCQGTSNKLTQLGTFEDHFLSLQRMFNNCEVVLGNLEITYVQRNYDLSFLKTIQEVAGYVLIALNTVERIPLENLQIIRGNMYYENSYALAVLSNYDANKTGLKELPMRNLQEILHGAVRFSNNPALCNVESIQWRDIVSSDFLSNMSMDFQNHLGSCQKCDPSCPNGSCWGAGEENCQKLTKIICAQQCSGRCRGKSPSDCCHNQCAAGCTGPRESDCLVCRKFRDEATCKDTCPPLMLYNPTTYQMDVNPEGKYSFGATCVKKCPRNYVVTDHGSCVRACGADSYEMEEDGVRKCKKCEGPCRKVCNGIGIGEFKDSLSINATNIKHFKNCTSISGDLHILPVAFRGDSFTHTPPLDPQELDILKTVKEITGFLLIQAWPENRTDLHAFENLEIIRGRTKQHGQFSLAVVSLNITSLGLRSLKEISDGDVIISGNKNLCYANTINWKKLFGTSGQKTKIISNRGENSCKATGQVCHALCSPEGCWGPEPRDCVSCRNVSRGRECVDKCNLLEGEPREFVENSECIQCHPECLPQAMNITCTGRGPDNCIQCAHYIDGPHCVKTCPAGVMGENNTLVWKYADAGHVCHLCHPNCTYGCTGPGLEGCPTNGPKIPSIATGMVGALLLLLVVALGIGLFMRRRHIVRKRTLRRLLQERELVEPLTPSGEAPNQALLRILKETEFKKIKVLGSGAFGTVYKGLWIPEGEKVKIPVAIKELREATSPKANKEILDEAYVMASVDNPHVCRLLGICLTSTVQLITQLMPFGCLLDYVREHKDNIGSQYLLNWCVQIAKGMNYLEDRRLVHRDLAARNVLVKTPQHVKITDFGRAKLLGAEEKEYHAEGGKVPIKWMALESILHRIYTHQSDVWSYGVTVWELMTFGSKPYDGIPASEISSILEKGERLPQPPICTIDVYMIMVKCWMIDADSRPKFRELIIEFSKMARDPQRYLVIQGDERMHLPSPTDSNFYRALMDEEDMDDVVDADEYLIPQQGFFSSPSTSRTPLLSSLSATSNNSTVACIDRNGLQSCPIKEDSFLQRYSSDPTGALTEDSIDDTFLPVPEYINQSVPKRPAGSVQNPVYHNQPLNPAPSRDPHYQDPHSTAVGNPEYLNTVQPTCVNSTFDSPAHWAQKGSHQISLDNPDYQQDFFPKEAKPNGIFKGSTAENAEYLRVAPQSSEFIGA
For orientation: In an ELISA, binding on a coated surface is turned into a signal by an enzyme label.

Assay [4] addresses HCC827 (Del E746-A750) (Homo sapiens, UniProt P00533, DEL746-750). The assay can be described thus: EGFR target modulation in HCC827 cell line (phospho-EGFR Y1173 ELISA). The method, boiled down: as §2
Assay [5] addresses HEKn (EGFR WT) (Homo sapiens, UniProt P00533). Description: EGFR target modulation in HEKn (EGFR-WT) cell line (phospho-EGFR Y1173 ELISA). The conditions noted are these: value outside parentheses. Put shortly:
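Read-out was Y1173 phosphorylation, measured by chemiluminescent ELISA with anti-EGFR capture of lysates. HEKn keratinocytes (wild-type EGFR) were treated with compound for 3 h.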

human EGFR L858R/T790M (NIH/3T3 cells), sequence (P00533 25-1210 T790M/L858R): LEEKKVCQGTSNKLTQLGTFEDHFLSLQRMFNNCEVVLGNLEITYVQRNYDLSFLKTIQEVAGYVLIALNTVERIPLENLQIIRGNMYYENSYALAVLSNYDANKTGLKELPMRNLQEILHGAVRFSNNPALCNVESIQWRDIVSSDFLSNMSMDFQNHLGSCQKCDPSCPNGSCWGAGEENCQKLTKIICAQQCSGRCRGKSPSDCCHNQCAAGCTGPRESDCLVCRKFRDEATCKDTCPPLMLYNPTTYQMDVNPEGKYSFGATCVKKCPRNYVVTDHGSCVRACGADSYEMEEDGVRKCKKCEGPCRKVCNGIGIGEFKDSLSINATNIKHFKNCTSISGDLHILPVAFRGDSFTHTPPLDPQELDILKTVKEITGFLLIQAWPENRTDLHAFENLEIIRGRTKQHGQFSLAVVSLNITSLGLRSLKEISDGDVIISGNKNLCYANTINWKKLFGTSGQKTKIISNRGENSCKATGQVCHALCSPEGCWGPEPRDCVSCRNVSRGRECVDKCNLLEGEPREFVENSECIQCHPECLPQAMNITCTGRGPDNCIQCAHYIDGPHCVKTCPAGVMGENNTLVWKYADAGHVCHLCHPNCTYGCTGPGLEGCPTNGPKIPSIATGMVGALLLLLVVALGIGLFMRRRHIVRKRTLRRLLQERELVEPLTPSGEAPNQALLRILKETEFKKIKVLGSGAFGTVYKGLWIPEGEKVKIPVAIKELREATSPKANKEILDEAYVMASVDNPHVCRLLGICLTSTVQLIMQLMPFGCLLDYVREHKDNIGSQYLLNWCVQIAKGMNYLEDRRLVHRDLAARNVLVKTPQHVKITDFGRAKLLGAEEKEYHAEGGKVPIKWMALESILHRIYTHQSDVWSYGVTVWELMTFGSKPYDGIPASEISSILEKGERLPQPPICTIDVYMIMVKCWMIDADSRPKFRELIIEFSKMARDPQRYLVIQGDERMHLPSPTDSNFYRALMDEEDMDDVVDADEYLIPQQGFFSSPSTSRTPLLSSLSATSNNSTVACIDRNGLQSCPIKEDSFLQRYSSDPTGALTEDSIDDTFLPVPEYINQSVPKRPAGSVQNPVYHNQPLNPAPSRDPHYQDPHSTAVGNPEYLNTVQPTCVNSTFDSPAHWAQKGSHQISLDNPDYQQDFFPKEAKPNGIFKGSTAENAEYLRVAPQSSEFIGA
HEKn (EGFR WT), sequence (P00533 25-1210): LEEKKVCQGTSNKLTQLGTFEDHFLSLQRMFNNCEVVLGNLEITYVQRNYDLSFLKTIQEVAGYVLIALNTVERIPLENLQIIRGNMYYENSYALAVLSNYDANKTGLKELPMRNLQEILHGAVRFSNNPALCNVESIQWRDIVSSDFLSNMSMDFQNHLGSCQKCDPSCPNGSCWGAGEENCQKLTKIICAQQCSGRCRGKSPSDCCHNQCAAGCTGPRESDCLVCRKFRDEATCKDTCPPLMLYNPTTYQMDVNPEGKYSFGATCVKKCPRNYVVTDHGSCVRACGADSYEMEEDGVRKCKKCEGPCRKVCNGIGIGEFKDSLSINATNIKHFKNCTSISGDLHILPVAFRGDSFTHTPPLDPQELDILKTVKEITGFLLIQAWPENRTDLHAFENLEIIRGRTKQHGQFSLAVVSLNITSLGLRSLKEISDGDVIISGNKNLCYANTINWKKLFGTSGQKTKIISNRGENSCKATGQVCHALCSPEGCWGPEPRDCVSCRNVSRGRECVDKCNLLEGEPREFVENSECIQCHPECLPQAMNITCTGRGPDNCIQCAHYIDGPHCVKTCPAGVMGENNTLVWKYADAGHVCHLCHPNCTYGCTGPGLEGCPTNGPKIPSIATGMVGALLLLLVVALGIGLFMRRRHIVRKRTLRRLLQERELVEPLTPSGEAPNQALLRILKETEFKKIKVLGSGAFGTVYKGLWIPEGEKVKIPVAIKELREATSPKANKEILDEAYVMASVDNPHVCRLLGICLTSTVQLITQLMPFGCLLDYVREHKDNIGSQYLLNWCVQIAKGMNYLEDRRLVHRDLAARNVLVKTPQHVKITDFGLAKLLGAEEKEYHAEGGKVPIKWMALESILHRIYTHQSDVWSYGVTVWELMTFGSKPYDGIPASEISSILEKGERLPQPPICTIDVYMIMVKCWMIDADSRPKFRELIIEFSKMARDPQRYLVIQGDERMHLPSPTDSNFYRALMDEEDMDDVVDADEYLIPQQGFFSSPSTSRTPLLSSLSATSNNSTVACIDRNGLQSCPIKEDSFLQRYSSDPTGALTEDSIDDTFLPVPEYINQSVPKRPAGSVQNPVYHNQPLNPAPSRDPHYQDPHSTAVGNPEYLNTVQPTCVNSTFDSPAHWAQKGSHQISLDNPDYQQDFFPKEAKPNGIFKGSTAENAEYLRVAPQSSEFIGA
human EGFR WT (NIH/3T3 cells, EGF-induced), sequence (P00533 25-1210): as above

With `C=CC(=O)N1CCCC[C@@H](n2c(NC(=O)c3ccnc(C)c3)nc3cc(CN4CC(F)C4)cc(C)c32)C1` [Example 17-152], the IC50 in assay [1] is 0.032 µM; in assay [2] it was 0.001 µM; in assay [3] it was 2 nM; in assay [4] it was less than 1 nM; in assay [5], 112 nM.

Turning to `C=CC(=O)N1CCCC[C@@H](n2c(NC(=O)c3ccnc(C)c3)nc3cc(CN4CC[C@H](OC)C4)cc(C)c32)C1` [Example 17-149], the IC50 was 0.015 µM in assay [1]; less than 0.001 µM in assay [2]; 2 nM in assay [3]; less than 1 nM in assay [4]; 76 nM in assay [5].

As to `C=CC(=O)N1CCCC[C@@H](n2c(NC(=O)c3ccnc(C)c3)nc3cc(CN4CC[C@@H](F)C4)cc(C)c32)C1` [Example 17-148], the IC50 in assay [1] is 0.083 µM; in assay [2], 0.002 µM; in assay [3], 2 nM; in assay [4], less than 1 nM; in assay [5], 77 nM.

With `C=CC(=O)N1CCCC[C@@H](n2c(NC(=O)c3ccnc(C)c3)nc3cc(CN4CC[C@H](F)C4)cc(C)c32)C1` [Example 17-147], the IC50 in assay [1] was 0.025 µM; in assay [2], less than 0.001 µM; in assay [3], 2 nM; in assay [4] it was less than 1 nM; in assay [5], 79 nM.

In the case of `C=CC(=O)N1CCCC[C@@H](n2c(NC(=O)c3ccnc(C)c3)nc3cc(CN4CC[C@@H](OC)C4)cc(C)c32)C1` [Example 17-150], the IC50 in assay [1] was 0.042 µM; in assay [2], 0.001 µM; in assay [3], 3 nM; in assay [4] it was less than 1 nM; in assay [5], 129 nM.

Regarding `C=CC(=O)N1CCCC[C@@H](n2c(NC(=O)c3ccnc(C)c3)nc3cc(CN4CC(OC)C4)cc(C)c32)C1` [Example 17-154], the IC50 was 0.01 µM in assay [1]; 0.001 µM in assay [2]; 2 nM in assay [3]; less than 1 nM in assay [4]; 79 nM in assay [5].
